Assay results as given in paper PMC11843613, “Further Optimization of the mGlu1 PAM VU6024578/BI02982816: Discovery and Characterization of VU6033685” (ACS Chemical Neuroscience, 2025).

Assays:
[1] = Unbound fraction in brain (rat); format: in vitro ADME; settings: read-out: fu brain (rat)
[2] = Predicted hepatic clearance from hepatic microsomes (human); format: in vitro ADME
Procedure: (§1) Intrinsic clearance: Human or rat hepatic microsomes (0.5 mg/mL) and 1 µM test compound were incubated in 100 mM potassium phosphate pH 7.4 buffer with 3 mM MgCl2 at 37°C with constant shaking.
(§2) After a 5 min preincubation, the reaction was initiated by addition of NADPH (1 mM). At selected time intervals (0, 3, 7, 15, 25, and 45 min), aliquots were taken and subsequently placed into a 96-well plate containing cold acetonitrile with internal standard (50 ng/mL carbamazepine). Plates were then centrifuged at 3000 rcf (4° C) for 10 min, and the supernatant was transferred to a separate 96-well plate and diluted 1:1 with water for LC/MS/MS analysis. The in vitro half-life (T 1/2, min, Eq. 1), intrinsic clearance (CLint, mL/min/kg, Eq. 2) and subsequent predicted hepatic clearance (CLhep, mL/min/kg, Eq. 3) was determined […]
(§3) employing the following equations: […]
(§4) where k represents the slope from linear regression analysis of the natural log percent remaining of test compound as a function of incubation time
(§5) 0.693 mL incubation 45 mg microsomes 20a gram liver
(§6) (2) CLint = in vitroT x mg microsomes x gram liver x kg body wt […]
(§7) ascale-up factors: of 20 (human) or 45 (rat) […]
(§8) where Qh (hepatic blood flow, mL/min/kg) is 21 (human) or 70 (rat).
(§9) LC/MS/MS Bioanalysis of Samples from Plasma Protein Binding and Intrinsic Clearance Assays. Samples were analyzed on a Thermo Electron TSQ Quantum Ultra triple quad mass spectrometer (San Jose, CA) via electrospray ionization (ESI) with two Themo Electron Accella pumps (San Jose, CA), and a Leap Technologies CTC PAL autosampler (Carrboro, NC). Analytes were separated by gradient elution on a dual column system with two Thermo Hypersil Gold (2.1 x 30 mm, 1.9 µm) columns (San Jose, CA) thermostated at 40°C. HPLC mobile phase A was 0.1% formic acid in water and mobile phase B was 0.1% formic acid in acetonitrile. The gradient […]
(§10) 95% B for 0.2 min; returned to 10% B in 0.1 min. The total run time was 1.3 min and the HPLC flow rate was 0.8 mL/min. While pump 1 ran the gradient method, pump 2 equilibrated the alternate column isocratically at 10% B. Compound optimization, data collection and […]

[3] = Predicted hepatic clearance from hepatic microsomes (rat); format: in vitro ADME
Procedure: as §1, §2, §3, §4, §5, §6, §7, §8, §9, §10

[4] = Rat CNS penetration (brain:plasma); format: in vivo; settings: male, Sprague-Dawley, intraperitoneal, 10 mg/kg; for Kp at 0.25 h: brain and plasma, rat brain:plasma; for Kp uu at 0.25 h: rat, brain/plasma
Procedure: In vivo DMPK experimental
Compounds were formulated as 10% tween 80 micro suspensions in sterile water at the concentration of 1 mg/ml and administered intraperitoneally to male Sprague- Dawley rats weighing 225 to 250 g (Harlan, Inc., Indianapolis, IN) at the dose of 10 mg/kg. The rat blood and brain were collected at 0.25 hr. Animals were euthanized and decapitated, and the brains were removed, thoroughly washed in cold phosphate buffered saline and immediately frozen on dry ice.
Trunk blood was collected in EDTA Vacutainer tubes, and plasma was separated by centrifugation and stored at -80°C until analysis. Plasma was separated by centrifugation (4000 rcf, 4°C) and stored at […] until analysis. On the day of analysis, frozen whole-rat brains were weighed and diluted with 1:3 (w/w) parts of 70:30 isopropanol:water. The mixture was then subjected to mechanical homogenation employing a Mini-Beadbeater™ and 1.0 mm Zirconia/Silica Beads (BioSpec Products) followed by centrifugation. The sample extraction of plasma (20 μL) or brain homogenate (20 μL) was performed by a method based on protein precipitation using three volumes of ice-cold acetonitrile containing an internal standard (50 ng/mL carbamazepine). The samples were centrifuged (3000 rcf, 5 min) and supernatants transferred and diluted 1:1 (supernatant: water) into a new 96 well plate, which was then sealed in preparation for LC/MS/MS […]
In vivo samples were analyzed via electrospray ionization (ESI) on an AB Sciex API-5500 QTrap (Foster City, CA) instrument that was coupled with Shimadzu LC-20AD pumps (Columbia, MD) and a Leap Technologies CTC PAL auto-sampler (Carrboro, NC). Analytes were separated by gradient elution using a Fortis C18 3.0 x 50 mm, 3 µm column (Fortis Technologies Ltd, Cheshire, UK) thermostated at 40°C. HPLC mobile phase A was 0.1% formic acid in water (pH unadjusted), mobile phase B was 0.1% formic acid in acetonitrile (pH unadjusted). The gradient started at 30% […]
min and returned to 30% B in 0.1 min followed by a re-equilibration (0.9 min). The total run time was 2.5 min and the HPLC flow rate was 0.5 mL/min. The source temperature was set at 500°C and mass spectral analyses were performed using multiple reaction monitoring (MRM), with transitions specific for each compound utilizing a Turbo-Ionspray® source in positive ionization […]
mode (5.0 kV spray voltage). The calibration curves were constructed in blank plasma. All data were analyzed using AB Sciex Analyst software v1.5.1.
All animal study procedures were approved by the Institutional Animal Care and Use Committee and were conducted in accordance with the National Institutes of Health regulations of animal care covered in Principles of Laboratory Animal Care (National Institutes of Health). […]
GraphPad Prism (version 4.03, GraphPad, La Jolla, CA). […]

Row | Structure (SMILES) | fraction unbound [1] | Predicted CLhep (h) [2] [mL/min/kg] | Predicted CLhep (r) [3] [mL/min/kg] | Kp at 0.25 h [4] | Kp uu at 0.25 h [4]
1 | Cn1cc(-c2cc(CNC(=O)c3cc(-c4ccco4)ccc3Cl)n(C)n2)cn1 [compound 4] | 0.044 | 15.1 | 34.2 | 0.89 | 0.98
2 | Cn1nc(-c2ccnn2C)cc1CNC(=O)c1cc(-n2cccn2)ccc1Cl [compound 5] | 0.185 | 4.6 | 21.4 | 0.3 | 0.52
3 | Cc1nc(C2CC2)ccc1CNC(=O)c1cc(-n2cccn2)ccc1Cl [compound 8] | 0.062 | 9.9 | 46.7 | 1.8 | 1.2

Continued, values first:

Row | fraction unbound [1] | Predicted CLhep (h) [2] [mL/min/kg] | Predicted CLhep (r) [3] [mL/min/kg] | Kp at 0.25 h [4] | Kp uu at 0.25 h [4] | Structure (SMILES)
4 | 0.047 | 15.8 | 47.8 | – | – | Cc1nc2ccccc2cc1CNC(=O)c1cc(-n2cccn2)ccc1Cl [compound 6]
5 | 0.04 | 13.3 | 46.8 | 0.98 | – | Cc1nc2c(F)cccc2cc1CNC(=O)c1cc(-n2cccn2)ccc1Cl [compound 7]
